The results in this text go back to patent US8569327B2, “Phenanthroindolizidine derivative and NFκB inhibitor containing same as active ingredient” (Kabushiki Kaisha Yakult Honsha, priority 2008, dated 2013).

Series [1] deals with NFκB. In words: Inhibitory action on the NFκB activity, luciferase assay in SW480/NRE-Luc cells. Type of series: cell-based, human. The procedure, abridged: (§1)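 Stable SW480 colon cancer lines carried luciferase driven by a 5× NFκB response element or by the SV40 promoter. Compound was added 1 h before 50 ng/mL TNFα, followed by 4 h culture at 37 °C; luminescence was read and IC50 taken as 50% inhibition of induced luciferase expression.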

Series [2] relates to human colon cancer HCT116 cells. Nature of the series: Antitumor effect in mice transplanted with human colon cancer HCT116 cells. Type of series: in vivo, mouse. The following applies: intraperitoneal days 1-5 and 8-12, tumor weight day 21, BALB/c nude mice. An excerpt: The antitumor effect of the phenanthroindolizidine alkaloid compound of the present invention in vivo was studied using mice transplanted with human colon cancer HCT116 cells. HCT116 cells were transplanted subcutaneously in the inguinal region of male 6-week-old BALB/c nude mice (2×10^6 cells/mouse). On days 1 to 5 and on days 8 to 12 after the time at which the estimated tumor volume obtained by ½ab^2 (a and b indicate the major axis and the minor axis of tumor, respectively) reached approximately 100 mm^3 (day 0), the compound of the present invention was administered (intraperitoneal administration). To a control group, a 5% glucose solution, a solvent, was administered. On day 21, tumor was excised and measured for its weight, and subsequently a tumor proliferation-inhibition rate IR (%) was calculated.

Series [3] deals with human colon cancer SW480 cells. Nature of the series: Inhibitory action on the proliferation of SW480 cells. Conditions: 48 hours, TetraColor ONE. Type of series: cell-based. The method, boiled down: (§2)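 Cells seeded overnight (SW480 2000/well in 10% FBS/RPMI1640; A549, HT-29 1000/well in 10% FBS DMEM or DMEM F12 HAM), then compound-treated at 37 °C, 5% CO2 for 48 h (SW480) or 96 h (A549, HT-29). Viable cells counted by TetraColor ONE; IC50 for 50% proliferation inhibition.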

Series [4] has as its system human non-small cell lung cancer A549 cells. In words: Inhibitory action on the proliferation of A549 cells. Type of series: cell-based. Conditions: 96 hours, TetraColor ONE. The method, boiled down: as §2
For series [5], the system named is SV40 promoter. In words: SV40 promoter activity, luciferase assay in SW480/SV40-Luc cells. Type of series: cell-based, human. The method, boiled down:
as §1

The nature of series [6]: Solubility of the salts. An excerpt: In in vivo studies, each compound was used in the form of a salt.
For series [7], the system named is human colon cancer HT-29 cells. Nature of the series: Inhibitory action on the proliferation of HT-29 cells. Type of series: cell-based. Conditions: 96 hours, TetraColor ONE. The method, boiled down:
as §2

A word on the solubility: it is the dissolved amount per volume that the medium holds. In general, IC50 refers to the concentration that inhibits the measured activity by half.

Marks after values point to notes of the source that are not given here.

In the case of `COc1cc2c3c(c4ccc(OC(C)=O)cc4c2cc1OC)C[C@@H]1CCCN1C3.CS(=O)(=O)O` [Compound 45, acetic acid(S)-6,7-dimethoxy-9,10,11,12,12a,13-hexahydro-9a-aza-cyclopenta[b]triphenylene-3-yl ester methanesulfonate], the “NFκB inhibitory activity IC50” value in series [1] (SW480/NRE-Luc cells, compound 1 h then 50 ng/mL TNFα 4 h, luciferase) worked out at 0.00041 µg/mL. In addition, the “Tumor growth inhibition rate IR” value in series [2] (total dose 200 mg/kg) was 34.7** %. In addition, in series [3], the “SW480 proliferation inhibitory action IC50” value was 0.00076 µg/mL. In addition, the “A549 proliferation inhibitory action IC50” value in series [4] was determined as 0.00064 µg/mL. For the same molecule, the “SV40 promoter inhibitory activity IC50” value in series [5] (SW480/SV40-Luc cells, luciferase) is more than 0.1 µg/mL. The solubility in series [6] (in an aqueous solution of 5% glucose, salt form) amounted to 9.7 mg/mL. In series [7], the “HT-29 proliferation inhibitory action IC50” value was found to be 0.0015 µg/mL.

`COc1cc2c3c(c4ccc(F)cc4c2cc1OC)C[C@@H]1CCCN1C3.CS(=O)(=O)O` [Compound 44, (S)-3-fluoro-6,7-dimethoxy-9,10,11,12,12a,13-hexahydro-9a-aza-cyclopenta[b]triphenylene methanesulfonate]: the IC50 in series [1] (Homo sapiens, SW480, read-out: NFκB inhibitory activity IC50) was 0.0368 µg/mL; in series [3] (Homo sapiens, SW480), 0.0649 µg/mL; in series [4] (Homo sapiens, A549), 0.006 µg/mL; in series [5] (Homo sapiens, SW480, read-out: SV40 promoter inhibitory activity IC50), more than 1 µg/mL; in series [7] (Homo sapiens, HT-29), 0.0128 µg/mL. The “Tumor growth inhibition rate IR” value in series [2] (total dose 100 mg/kg) is on record as 30.7** %. Also, in series [6] (aqueous solution of 5% glucose, saline or isotonic), the solubility stood at 10.3 mg/mL.
